# Assay results: patent US20250134869A1, “Pyrrolo[2,3-d]pyrimidinyl, Pyrrolo[2,3-b]pyrazinyl and Pyrrolo[2,3-d]pyridinyl Acryla-mides” (Pfizer Inc, priority 2021, published 2025)
# Read-outs that look alike come from different tables or passages of the source.
# Biological target: JAK3 enzyme (Homo sapiens (Human), UniProt P52333)
# Experiment: JAK Caliper Enzyme Assay at 4 μM or 1 mM ATP
# Assay type: biochemical
# Method: JAK Caliper Enzyme Assay at […] or 1 mM ATP
# Test article was solubilized in dimethyl sulfoxide (DMSO) to a stock concentration of 30 mM. An 11-point half log dilution series was created in DMSO with a top concentration of 600 μM. […] The compound plates were diluted 1 to 60 resulting in a top final assay compound concentration of 10 μM and a 2% DMSO concentration.
# Test article and assay controls were added to a 384-well plate. Reaction mixtures contained 20 mM HEPES, pH 7.4, 10 mM magnesium chloride, 0.01% bovine serum albumin (BSA), 0.0005% Tween […] or 1 mM ATP and […] peptide substrate. […] The assays were initiated by the addition 1 nM JAK3 enzyme and were incubated at room temperature 75 minutes for JAK3. Enzyme concentrations and incubation times were optimized for each new enzyme preps and were modified slightly over time to ensure 20%-30% phosphorylation. The assays were stopped with a final concentration of 10 mM EDTA, 0.1% Coating Reagent and 100 mM HEPES, pH=7.4. The assay plates were placed on a Caliper Life Science Lab Chip 3000 (LC3000) instrument, and each well was sampled using appropriate separation conditions to measure the unphosphorylated and phosphorylated peptide.
# [1] = read-out: JAK3 (4 μM ATP) IC50, 4 μM ATP
# [2] = read-out: JAK3 (1 mM ATP) IC50, 1 mM ATP
# Chain of JAK3 enzyme (P52333 whole entry, species assumed): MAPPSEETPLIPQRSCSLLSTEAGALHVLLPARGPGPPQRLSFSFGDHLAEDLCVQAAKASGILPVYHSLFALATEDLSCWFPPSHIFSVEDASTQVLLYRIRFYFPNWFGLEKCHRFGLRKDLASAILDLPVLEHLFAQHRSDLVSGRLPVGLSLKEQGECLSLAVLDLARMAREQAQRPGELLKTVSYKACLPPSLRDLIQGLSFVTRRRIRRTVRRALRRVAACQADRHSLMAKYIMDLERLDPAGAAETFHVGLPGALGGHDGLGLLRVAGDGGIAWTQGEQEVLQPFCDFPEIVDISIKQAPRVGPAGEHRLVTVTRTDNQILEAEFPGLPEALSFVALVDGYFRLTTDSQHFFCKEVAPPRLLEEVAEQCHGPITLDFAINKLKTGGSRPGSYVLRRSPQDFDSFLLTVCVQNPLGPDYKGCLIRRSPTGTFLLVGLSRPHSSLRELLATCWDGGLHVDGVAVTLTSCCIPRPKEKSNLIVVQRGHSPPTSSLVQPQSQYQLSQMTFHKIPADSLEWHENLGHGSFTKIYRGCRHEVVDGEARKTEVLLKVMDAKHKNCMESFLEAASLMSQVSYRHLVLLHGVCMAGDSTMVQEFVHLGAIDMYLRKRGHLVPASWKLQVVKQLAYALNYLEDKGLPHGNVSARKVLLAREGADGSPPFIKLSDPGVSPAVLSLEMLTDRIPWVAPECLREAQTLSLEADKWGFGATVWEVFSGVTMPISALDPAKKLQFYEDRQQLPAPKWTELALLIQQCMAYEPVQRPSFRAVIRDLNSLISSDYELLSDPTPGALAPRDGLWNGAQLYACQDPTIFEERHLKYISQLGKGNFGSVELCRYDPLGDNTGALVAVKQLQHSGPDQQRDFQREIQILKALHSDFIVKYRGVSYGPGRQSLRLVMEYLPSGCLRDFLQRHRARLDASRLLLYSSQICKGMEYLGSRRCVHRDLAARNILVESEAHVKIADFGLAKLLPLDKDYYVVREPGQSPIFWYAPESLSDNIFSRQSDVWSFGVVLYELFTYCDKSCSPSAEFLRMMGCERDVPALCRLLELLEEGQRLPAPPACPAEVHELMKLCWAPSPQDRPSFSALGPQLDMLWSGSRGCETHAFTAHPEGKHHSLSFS
Compound,IC50 [1],IC50 [2]
"C=CC(=O)N1CCC(Nc2cnc3[nH]cc(C(=O)NC4CCC(F)(F)C4)c3n2)CC1 (centres unmarked) [Example 259, 2-[(1-acryloylpiperidin-4-yl)amino]-N-(3,3-difluorocyclopentyl)-5H-pyrrolo[2,3-b]pyrazine-7-carboxamide]",0.2 nM,11.1 nM
"C=CC(=O)N1CCC[C@@H](Nc2ncnc3[nH]cc(-c4cccnc4)c23)C1 [Example 26, 1-[(3R)-3-{[5-(pyridin-3-yl)-7H-pyrrolo[2,3-d]pyrimidin-4-yl]amino}piperidin-1-yl]prop-2-en-1-one]",1.6 nM,153 nM
"C=CC(=O)N1C[C@@H](C)N(c2cnc3[nH]cc(C(=O)NC(C)C)c3n2)[C@@H](C)C1 [Example 328, 2-[(2R,6S)-4-acryloyl-2,6-dimethylpiperazin-1-yl]-N-(propan-2-yl)-5H-pyrrolo[2,3-b]pyrazine-7-carboxamide]",1.6 nM,222 nM
"C=CC(=O)N1CCC(CNc2cnc3[nH]cc(C(=O)NC(C)C)c3n2)CC1 [Example 193, 2-{[(1-acryloylpiperidin-4-yl)methyl]amino}-N-(propan-2-yl)-5H-pyrrolo[2,3-b]pyrazine-7-carboxamide]",29 nM,2290 nM
"C=C(C)C(=O)N1CCC[C@@H](Nc2ncnc3[nH]cc(CCO)c23)C1 [Example 152, 1-[(3R)-3-{[5-(2-Hydroxyethyl)-7H-pyrrolo[2,3-d]pyrimidin-4-yl]amino}piperidin-1-yl]-2-methylprop-2-en-1-one]",4240 nM,–
"C=CC(=O)N1CCC(Oc2cnc3[nH]cc(-c4cccc(C(=O)NC)c4)c3n2)CC1 [Example 227, 3-{2-[(1-acryloylpiperidin-4-yl)oxy]-5H-pyrrolo[2,3-b]pyrazin-7-yl}-N-methylbenzamide]",0.9 nM,71.8 nM
"C=CC(=O)N1CCC(Nc2cnc3[nH]cc(C(=O)N[C@@H](C)CC)c3n2)CC1 [Example 285, 2-[(1-acryloylpiperidin-4-yl)amino]-N-[(2S)-butan-2-yl]-5H-pyrrolo[2,3-b]pyrazine-7-carboxamide]",0.3 nM,8.5 nM
"C=CC(=O)N1CCC[C@@H](Nc2ncnc3[nH]ccc23)C1 [Example 12, (R)-1-(3-((7H-Pyrrolo[2,3-d]pyrimidin-4-yl)amino)piperidin-1-yl)prop-2-en-1-one]",0.7 nM,56.8 nM
"C=CC(=O)N1CCC(Nc2cnc3[nH]cc(C(=O)NCCOC)c3n2)CC1 [Example 275, 2-[(1-acryloylpiperidin-4-yl)amino]-N-(2-methoxyethyl)-5H-pyrrolo[2,3-b]pyrazine-7-carboxamide]",0.4 nM,13.1 nM
"C=CC(=O)N1CCC[C@@H](Nc2ncnc3[nH]cc(C(=O)NCCO)c23)C1 [Example 143, 4-{[(3R)-1-acryloylpiperidin-3-yl]amino}-N-(2-hydroxyethyl)-7H-pyrrolo[2,3-d]pyrimidine-5-carboxamide]",144 nM,–
"CS/C=C/C(=O)N1CCC[C@@H](Nc2ncnc3[nH]ccc23)C1 [Example 98, (2E)-3-(methylsulfanyl)-1-[(3R)-3-(7H-pyrrolo[2,3-d]pyrimidin-4-ylamino)piperidin-1-yl]prop-2-en-1-one]",2630 nM,> 10000 nM
"C=CC(=O)N1C[C@H](O)C[C@@H](Nc2ncnc3[nH]ccc23)C1 [Example 60, 1-((3R,5R)-3-((7H-Pyrrolo[2,3-d]pyrimidin-4-yl)amino)-5-hydroxypiperidin-1-yl)prop-2-en-1-one]",4.2 nM,603 nM
"C=CC(=O)N1[C@@H]2CC[C@H]1CN(c1cnc3[nH]cc(C(=O)NC(C)C)c3n1)C2 [Example 301, 2-[(1R,5S)-8-acryloyl-3,8-diazabicyclo[3.2.1]oct-3-yl]-N-(propan-2-yl)-5H-pyrrolo[2,3-b]pyrazine-7-carboxamide]",0.6 nM,89 nM
"C=CC(=O)N1CCC(Nc2cnc3[nH]cc(C(=O)NC4CCCC(F)(F)C4)c3n2)CC1 (centres unmarked) [Example 236, 2-[(1-acryloylpiperidin-4-yl)amino]-N-(3,3-difluorocyclohexyl)-5H-pyrrolo[2,3-b]pyrazine-7-carboxamide]",0.1 nM,8.3 nM
"C=CC(=O)N1CCC(Nc2cnc3[nH]cc(C(=O)N[C@@H]4CC[C@H](F)C4)c3n2)CC1 [Example 255, 2-[(1-acryloylpiperidin-4-yl)amino]-N-[(1R,3S)-3-fluorocyclopentyl]-5H-pyrrolo[2,3-b]pyrazine-7-carboxamide]",0.3 nM,9.7 nM
"C=C(C(=O)N1CC[C@@H]2CCN(c3ncnc4[nH]ccc34)[C@@H]2C1)C(F)(F)F [Example 41, 1-((3aS,7aS)-1-(7H-Pyrrolo[2,3-d]pyrimidin-4-yl)hexahydro-1H-pyrrolo[2,3-c]pyridin-6 (2H)-yl)-2-(trifluoromethyl)prop-2-en-1-one]",1 nM,92.5 nM

Compound,IC50 [1],IC50 [2]
"C=CC(=O)N1CCC(Nc2cnc3[nH]cc(-c4ccncc4F)c3n2)CC1 [Example 200, 1-(4-{[7-(3-fluoropyridin-4-yl)-5H-pyrrolo[2,3-b]pyrazin-2-yl]amino}piperidin-1-yl)prop-2-en-1-one]",0.8 nM,88.9 nM
"N#CCCc1c[nH]c2ncnc(N[C@@H]3CCCN(C(=O)/C=C/CO)C3)c12 [Example 158, 3-[4-({(3R)-1-[(2E)-4-Hydroxybut-2-enoyl]piperidin-3-yl}amino)-7H-pyrrolo[2,3-d]pyrimidin-5-yl]propanenitrile]",> 10000 nM,–
"C#CCNC(=O)c1c[nH]c2ncc(NC3CCN(C(=O)C=C)CC3)nc12 [Example 343, 2-((1-Acryloylpiperidin-4-yl)amino)-N-(prop-2-yn-1-yl)-5H-pyrrolo[2,3-b]pyrazine-7-carboxamide]",0.1 nM,3.4 nM
"C=CC(=O)N1CCC(Nc2cnc3[nH]cc(C(=O)NCC(C)CC(F)(F)F)c3n2)CC1 (centres unmarked) [Example 253, 2-[(1-acryloylpiperidin-4-yl)amino]-N-(4,4,4-trifluoro-2-methylbutyl)-5H-pyrrolo[2,3-b]pyrazine-7-carboxamide]",0.2 nM,6.9 nM
"C=CC(=O)N1CCC(Nc2cnc3[nH]cc(C(=O)NCCCC)c3n2)CC1 [Example 269, 2-[(1-acryloylpiperidin-4-yl)amino]-N-butyl-5H-pyrrolo[2,3-b]pyrazine-7-carboxamide]",0.2 nM,7.3 nM
"C=CC(=O)N1CCC(Nc2cnc3[nH]cc(-c4cnc(N5CCOCC5)nc4)c3n2)CC1 [Example 208, 1-[4-({7-[2-(morpholin-4-yl)pyrimidin-5-yl]-5H-pyrrolo[2,3-b]pyrazin-2-yl}amino)piperidin-1-yl]prop-2-en-1-one]",5.9 nM,576 nM
"C=CC(=O)N1CCC(Nc2cnc3[nH]cc(C(=O)NCC(F)(F)F)c3n2)CC1 [Example 273, 2-[(1-acryloylpiperidin-4-yl)amino]-N-(2,2,2-trifluoroethyl)-5H-pyrrolo[2,3-b]pyrazine-7-carboxamide]",0.4 nM,11.4 nM
"C=CC(=O)N1CCC(Nc2cnc3[nH]cc(C(=O)NCC4(O)CCC(F)(F)CC4)c3n2)CC1 [Example 252b, 2-[(1-acryloylpiperidin-4-yl)amino]-N-[(4,4-difluoro-1-hydroxycyclohexyl)methyl]-5H-pyrrolo[2,3-b]pyrazine-7-carboxamide]",0.5 nM,40.6 nM
"C/C=C/C(=O)N1CCC[C@@H](N2CC(C)c3c[nH]c4ncnc2c34)C1 (mixture of isomers) [Example 154, (2E)-1-[(3R)-3-(3-methyl-3,4-dihydro-1,5,6,8-tetraazaacenaphthylen-5 (1H)-yl)piper-idin-1-yl]but-2-en-1-one]",4940 nM,–
"C=CC(=O)N1CCC[C@@H](Nc2ncnc3[nH]cc(C=C)c23)C1 [Example 40, 1-{(3R)-3-[(5-ethenyl-7H-pyrrolo[2,3-d]pyrimidin-4-yl)amino]piperidin-1-yl}prop-2-en-1-one]",> 10000 nM,–
"C=CC(=O)N1CCC(Nc2cnc3[nH]cc(C(=O)N(C)C(C)C)c3n2)CC1 [Example 279, 2-[(1-acryloylpiperidin-4-yl)amino]-N-methyl-N-(propan-2-yl)-5H-pyrrolo[2,3-b]pyrazine-7-carboxamide]",9.7 nM,592 nM
"C=CC(=O)N1CCC[C@@H](Nc2ncnc3[nH]cc(-c4ccc(C(=O)N(C)C)cc4)c23)C1 [Example 27, 4-(4-{[(3R)-1-acryloylpiperidin-3-yl]amino}-7H-pyrrolo[2,3-d]pyrimidin-5-yl)-N,N-dimethylbenzamide]",2.8 nM,294 nM
"C=CC(=O)N1CCC(Nc2cnc3[nH]cc(C(=O)NC(C)(C)CC)c3n2)CC1 [Example 276, 2-[(1-acryloylpiperidin-4-yl)amino]-N-(2-methylbutan-2-yl)-5H-pyrrolo[2,3-b]pyrazine-7-carboxamide]",< 0.3 nM,11.1 nM
"C=CC(=O)N1C[C@H](Nc2ncnc3[nH]ccc23)C[C@@H](OC)C1 [Example 77, 1-[(3R,5R)-3-Methoxy-5-(7H-pyrrolo[2,3-d]pyrimidin-4-ylamino)piperidin-1-yl]prop-2-en-1-one]",15.5 nM,2070 nM
"C=CC(=O)N1CCC[C@@H](Nc2c(C#N)cnc3[nH]ccc23)C1 [Example 156, 4-{[(3R)-1-Acryloylpiperidin-3-yl]amino}-1H-pyrrolo[2,3-b]pyridine-5-carbonitrile]",7.2 nM,–
